The values that follow come from PMC11604427 (Frontiers in Pharmacology, 2024).

One series relates to Hep3B. Kind of series: MTT assay. It is filed as cell-based. Particulars: Homo sapiens, 48 h, read-out: IC50 (μM) ± SD Hep3B. Here is the method:
Cells at a density of 4×10^3 cells/well were inoculated into 96-well plates for overnight culture at 37°C. […] Then, 100 μL of a 0.5 mg/mL MTT solution was pipetted into each well, and the incubation was prolonged for 4 h, resulting in the formation of a purple precipitate. Afterward, 200 μL of DMSO was added to each well, and the plate was vortexed for 10 min. The absorbance at 570 nm was determined with a Synergy 4 microplate reader (BioTek, United States). Each experiment was performed three times under the same conditions.

For series [1], the target named is T1, Human recombinant PKMYT1 enzyme (Homo sapiens, UniProt Q99640).
T1 construct: purchased Abcam
T1 sequence (Q99640 1-499): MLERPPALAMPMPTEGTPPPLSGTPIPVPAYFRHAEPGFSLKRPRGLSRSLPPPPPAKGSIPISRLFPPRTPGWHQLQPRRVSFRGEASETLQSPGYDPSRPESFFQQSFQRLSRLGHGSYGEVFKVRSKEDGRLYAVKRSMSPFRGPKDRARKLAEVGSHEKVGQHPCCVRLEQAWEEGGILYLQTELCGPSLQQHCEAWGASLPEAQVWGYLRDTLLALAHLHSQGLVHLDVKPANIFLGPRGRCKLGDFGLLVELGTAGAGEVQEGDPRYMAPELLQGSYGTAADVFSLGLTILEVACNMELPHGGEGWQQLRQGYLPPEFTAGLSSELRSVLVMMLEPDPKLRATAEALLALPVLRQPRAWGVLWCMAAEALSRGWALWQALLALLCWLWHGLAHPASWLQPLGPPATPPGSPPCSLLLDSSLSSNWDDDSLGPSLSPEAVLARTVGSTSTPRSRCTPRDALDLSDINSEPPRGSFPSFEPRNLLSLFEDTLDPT
Kind of series: ADP-GLO enzyme inhibition assay. It is filed as biochemical. As for the experimental part:
The ADP-GLO™ kinase assay kit, purchased from Promega Corporation (Madison, WI, United States), included the ADP-GLO reagent, the kinase assay reagent, and ultra-pure ATP and ADP. PKMYT1 enzyme was dissolved in 5 μL of freshly prepared enzyme assay buffer containing 70 mM Hepes, 3 mM MgCl2, 3 mM MnCl2, 50 μg/mL PEG20000, 3 μM sodium orthovanadate, 1.2 mM dithiothreitol, and then injected into 384-well plates. […] The enzymatic reaction was initiated by adding 5 μL of ATP, followed by a 60-min incubation at 30°C. Subsequently, 15 μL of ADP-GLO reagent was added, and the incubation was continued for an additional 40 min at room temperature. Then, 30 μL of kinase detection reagent was introduced, and the samples were incubated for a final 30 min. Luminescence measurements were taken using an Envision plate reader (PerkinElmer). The IC50 value of each tested compound was calculated by GraphPad Prism software.
On the technique in general: ADP-Glo turns the ADP formed in a reaction into a luminescent signal.

A further series deals with 63 distinct kinases. The experiment in a line: SelectScreen kinase selectivity assay, whole panel. It is filed as biochemical. Particulars: read-out: IC50 values for each of the 63 kinases. As for the experimental part: The kinase selectivity analysis of PKHD-5 was performed using the SelectScreen kinase analysis service provided by Thermo Fisher Scientific. The experiment initially involved the preparation of a series of inhibitor solutions at varying concentrations, which were then reacted with various kinase targets under standardized conditions to calculate the percentage inhibition for each test solution. Ultimately, the IC50 values were calculated based on the concentration-inhibition curves by fitting a four-parameter logistic curve, thereby assessing the potency and selectivity of the inhibitors. The analysis results are detailed in Supplementary Table S1.

For a further series, the system named is HCC cell lines. The experiment in a line: MTT assay, all HCC cell lines. It is filed as cell-based. As to conditions: Homo sapiens, range over HepG2, Hep3B, Huh7, SNU449, HepG2/MDR, 48 h, read-out: IC50 values against all HCC cell lines. As for the experimental part:
The MTT assay was conducted to evaluate the inhibitory impact of PKHD-5 on HCC cells, HepG2/ADR cells, and normal liver cells ([Ding et al., 2020]). Cells at a density of 4×10^3 cells/well were inoculated into 96-well plates for overnight culture at 37°C. The cells were treated with varying concentrations of the test compounds and incubated for 48 h. Then, 100 μL of a 0.5 mg/mL MTT solution was pipetted into each well, and the incubation was prolonged for 4 h, resulting in the formation of a purple precipitate. Afterward, 200 μL of DMSO was added to each well, and the plate was vortexed for 10 min. The absorbance at 570 nm was determined with a Synergy 4 microplate reader (BioTek, United States). Each experiment was performed three times under the same conditions.
(Tetrazolium assays rely on reduction of a dye to a coloured formazan, in cell work by metabolically active cells.)

For series [2], the system named is HepG2 cells. The experiment in a line: Western blot of apoptosis markers. The series is classed as cell-based, human. As for the experimental part: To evaluate the protein levels of apoptosis-associated markers, we performed Western blot analysis on cell extracts as previously reported ([Hao et al., 2018]). Briefly, equal amounts of protein were subjected to SDS-PAGE and then transferred onto a polyvinylidene fluoride (PVDF) membrane. The membrane was incubated in a blocking solution consisting of 5% non-fat dry milk in Tris-buffered saline with Tween-20 (TBS-T) for 3 h at room temperature. Subsequently, the membrane was probed with primary antibodies specific to cleaved PARP and cleaved caspase-3 overnight at 4°C. After washing, the membrane was incubated with horseradish peroxidase-conjugated secondary antibodies for 1 h at room temperature. Immunoreactive bands were visualized using a chemiluminescent substrate (ECL, Pierce Technology). The relative expression levels of cleaved PARP and cleaved caspase-3 were quantified.

Another series in a line: In vivo pharmacokinetics. As to conditions: BALB/c, mouse, plasma, mice, 5 mg/kg. Here is the method: In the pharmacokinetic (PK) assessment of PKHD-5, BALB/c mice were utilized as the experimental model. PKHD-5 was administered either intraperitoneally or orally at a dosage of 5 mg/kg. Serial blood samples (0.25 mL) were collected at 0.25, 0.5, 1, 2, 4, 8, 16, and 24 h post-treatment. Each plasma sample (50 μL) underwent protein precipitation with a 1:1 mixture of methanol and acetonitrile (200 μL) and an internal standard. After vortexing for 5 min, the samples were centrifuged at 12,000 rpm for 5 min, yielding a supernatant (60 μL) for LC-MS/MS analysis. The data obtained were analyzed using Phoenix software to determine the PK profile of PKHD-5 in the mouse model.

Series [3] concerns HepG2 cells. Kind of series: RT-PCR analysis. The series is classed as cell-based, human. Here is the method:
Total RNA was extracted from cells using Trizol reagent (Invitrogen, Carlsbad, CA) and reverse transcribed into cDNA with the PrimeScript RT reagent kit (Takara Bio, Otsu, Japan). RT-PCR was performed on the Mx3000P system (Agilent Technologies, Santa Clara, CA) with TB Green Premix Ex Taq II (Takara Bio). Relative gene expression was determined by the 2^−ΔΔCt method.

SMILES strings stand for the structures.

For the compound `Cc1ccc(O)c(C)c1-n1c(N)c(C(N)=O)c2cc(CCCCCC(=O)NO)c(C)nc21` [PKHD-5], the IC50 in the series with Hep3B worked out at 0.38 ± 0.05 µM. The IC50 in series [1] (ADP-GLO method) was 3.15 ± 0.21 nM. The “fold inhibition of PKMYT1 compared with the control compound 39” value in series [1] (ratio of IC50 values versus compound 39) is given as 4.91 fold. For the same compound, the IC50 on 63 distinct kinases is above 50000 nM. In addition, the IC50 in the series on HCC cell lines is 190 to 920 nM. Also, in the series with HepG2 cells [2], the “levels of cleaved PARP” value is “increased levels” and the “levels of cleaved caspase-3” value is on record as “increased levels”. In “In vivo pharmacokinetics” (IP), this compound showed an AUC of 15 µM·h, a Cmax of 3.26 µM, a bioavailability of 82% and a half-life of 4.75 h. Besides, in the series “In vivo pharmacokinetics” (PO), the AUC came out at 12.2 µM·h, the peak level (Cmax) was 2.92 µM, the bioavailability was found to be 66% and the half-life is 3.93 h. Also, in the series on HepG2 cells [3], the “expression of histone H3 acetylation” value was “upregulated” and the “expression of p21” value is on record as “upregulated”.

In general, IC50 refers to the concentration at which inhibition is half-maximal. What is called AUC is the area under the concentration-time curve, a measure of exposure. High values mean high exposure, low ones low exposure. As usually defined, the Cmax is the peak of the concentration-time curve. As usually defined, the bioavailability is the share of a dose that reaches the circulation, judged against a reference dose that is usually intravenous. A high value points to good availability. What is called half-life is the time in which the quantity being followed falls by half.
